Columns and labels:
GA6871 = assay: In vitro activity test of gastric cancer PDX (CellTiter-Glo), GA6871; assay type: cell-based; settings: PDX GA6871, gastric cancer with high BRK expression, 168 hours
Description: (§1) Patient-derived xenograft (PDX) models are methods in which tumor tissue from cancer patients is transplanted into severely immunodeficient mice for culture and passaging, and used to test compound activity. The compounds of the present invention were tested using three PDX samples (GA0119, GA6208, and GA6871, all being gastric cancers with high BRK expression, all cultured in DMEM).
(§2) Preparation of PDX model tumor cell suspension: PDX model animals were housed in the animal facility, and tumor growth was observed weekly. When the PDX model tumor grew to an appropriate size, the tumor was removed and minced using sterile surgical instruments. Collagenase B digestion solution was added, and digestion was performed at 37°C for approximately 2 hours. Undigested tissue was removed by passing through a cell strainer. The strainer was washed with PBS 3-5 times, and the cell pellet was washed with PBS 4 times. Tumor cells were resuspended in culture medium. ACK lysis buffer was used to remove red blood cells when necessary.
(§3) Cell plating: The above cell suspension was taken and counted. The cell suspension concentration was adjusted to 5.75 × 10^5 cells/mL by dilution with culture medium. 3.5 mL of the cell suspension and 6.5 mL of 1% methylcellulose solution were mixed thoroughly. 100 µL of the cell suspension was added to each well of a 96-well plate (including compound-treated cell plates and T0 control cell plates), followed by incubation overnight under conditions of 37°C, 5% CO2, and 95% humidity.
(§4) Day 0 cell viability reading: The CellTiter-Glo® reagent and T0 control cell culture plate were equilibrated at room temperature for 30 minutes. 100 µL of CellTiter-Glo® reagent was added to each well. The plate was shaken on an orbital shaker for 20 minutes to ensure complete cell lysis. The cell culture plate was then equilibrated at room temperature for 10 minutes, and the chemiluminescence signal was read using an EnVision plate reader.
(§5) Day 0 compound treatment: The test compound (stock concentration 10 mM) was taken out and equilibrated at room temperature for use. The compound treatment cell plate was taken out. The test compound solution was added to the corresponding wells. The highest concentration for each compound was 30 µM, with 3-fold serial dilutions, 9 concentration points, each concentration point in triplicate (DMSO concentration normalized). The final concentration of DMSO in each cell well was 0.3%. The dosed 96-well plate was then placed in an incubator at 37°C, 5% CO2, and 95% humidity for continued culture for 168 hours.
(§6) Day 7 cell viability reading: The CellTiter-Glo® reagent and cell culture plate were equilibrated at room temperature for 30 minutes. 100 µL of CellTiter-Glo® reagent was added to each well. The plate was shaken on an orbital shaker for 20 minutes to lyse the cells. The cell plate was then placed at room temperature for 10 minutes to stabilize the luminescence signal, and the luminescence value was read using an EnVision plate reader.
(§7) Data processing: Data were analyzed using GraphPad Prism 9.0 software. A nonlinear sigmoidal curve regression was used to fit the data and generate a dose-response curve, from which the IC50 value was calculated. Cell survival rate (%) = (Lumtest compound - Lummedium control) / (Lumcell control - Lummedium control) × 100%. Lum represents the luminescence value.

BRK-BaF3 cells = assay: Cell antiproliferative activity assay (CCK-8), BRK-BaF3; assay type: cell-based; settings: 72 h, CCK-8, 3 days incubation
How it was run: (§8)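 Growth inhibition over 3 days, with compound serially diluted 3-fold from a 10 µM top concentration. Cells seeded at 100,000 cells/mL; WT-BaF3 medium carried 10% WEHI supernatant as the IL-3 source. Viability read by CCK-8 OD450 after 2-4 h; IC50 from blank-subtracted curve fit.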

GA0119 = assay: In vitro activity test of gastric cancer PDX (CellTiter-Glo), GA0119; assay type: cell-based; settings: PDX GA0119, gastric cancer with high BRK expression, 168 hours
Description: as §1, §2, §3, §4
Day 0 compound treatment: The test compound (stock concentration 10 mM) was taken out and equilibrated at room temperature for use. The compound treatment cell plate was taken out. The test compound solution was added to the corresponding wells. […]
Day 7 cell viability reading: The CellTiter-Glo® reagent and cell culture plate were equilibrated at room temperature for 30 minutes. […] The cell plate was then placed at room temperature for 10 minutes to stabilize the luminescence signal, and the luminescence value was read using an EnVision plate reader.
Data processing: Data were analyzed using GraphPad Prism 9.0 software. A nonlinear sigmoidal curve regression was used to fit the data and generate a dose-response curve, from which the IC50 value was calculated. […] Lum represents the luminescence value.

GA6208 = assay: In vitro activity test of gastric cancer PDX (CellTiter-Glo), GA6208; assay type: cell-based; settings: PDX GA6208, gastric cancer with high BRK expression, 168 hours
Description: as §1, §2, §3, §4, §5, §6, §7

WT-BaF3 cells = assay: Cell antiproliferative activity assay (CCK-8), WT-BaF3 (broad-spectrum cytotoxicity); assay type: cell-based; settings: 72 h; WT-BaF3 cells (IL-3 supplemented), CCK-8, 3 days incubation
How it was run: as §8

[1] = system: gastric cancer xenograft model GA6208; assay: In vivo efficacy evaluation of gastric cancer PDX (GA6208); set-up: species or system Balb/c nude mice; settings: for Day 35 tumor volume (mean ± SEM): I-21 100 mg/kg oral gavage twice daily, I-81 100/80 mg/kg oral gavage twice daily, cisplatin 3 mg/kg tail vein once weekly, in mm³ (unit assumed); for Day 35 TGI (%): tumor growth inhibition vs vehicle control, same dosing as tumor volume
Excerpt: Tumor tissue was collected from tumor-bearing mice of the gastric cancer xenograft model GA6208, cut into tumor pieces of 2-3 mm in diameter, and subcutaneously inoculated at the right front scapular region of Balb/c nude mice. When the mean tumor volume of the tumor-bearing mice reached approximately 150 mm^3 (100-200 mm^3), the mice were randomly divided into 4 groups of 8 mice each, and administered as follows: vehicle control (0.5% CMC-Na solution, oral gavage, twice daily), compound I-21 (100 mg/kg, oral gavage, twice daily), compound I-81 (100 mg/kg for the first 8 days, then 80 mg/kg for the subsequent 27 days, oral gavage, twice daily), and cisplatin (3 mg/kg, tail vein injection, once weekly), for a total of 35 days.

T47D cells = assay: Cell antiproliferative activity assay (CCK-8), T47D; assay type: cell-based; settings: Homo sapiens, 72 h, breast cancer cell line T47D, incubation for 3 days
Description: BRK-BaF3, WT-BaF3, WEHI cell line, and breast cancer cell line T47D were cultured using RPMI 1640 Basal medium or DMEM (Dulbecco's Modified Eagle Medium) (Shanghai Peiyuan Biotechnology, L220KJ), supplemented with 10% FBS (Gibco, REF 10099-141C) and 1% P/S (Shanghai Peiyuan Biotechnology, S110JV), in an incubator (Thermo 3020) at 37°C with 5% CO2. Cell viability was above 95%. Cells were passaged at a 3:1 ratio every 3-4 days. For WT-BaF3 cells, WEHI cells were first cultured, and their culture supernatant was filtered through a 0.22 µm filter. This supernatant was added at 10% to the regular culture medium to supplement IL-3 required for WT-BaF3 cell proliferation, which served as the culture medium for WT-BaF3. For testing, cells were first collected and counted, then prepared into a cell suspension at 100,000 cells/mL and plated at 100 µL per well. Drug concentrations started from 10 µM and were serially diluted 3:1. After incubation for 3 days, 20 µL of CCK-8 detection reagent (Targetmol C005) was added to each well. After incubation for 2-4 hours, OD450 was measured using a microplate reader (Varioskan LUX, Thermo Scientific). After subtracting the blank background, the curve was fitted and the IC50 was calculated using XLfit software.
In addition, the following table exemplarily lists the IC50 values of some compounds of the present invention against T47D cells.

Compound | IC50 (GA6871) [µM] | IC50 (BRK-BaF3 cells) [µM] | IC50 (GA0119) [µM] | IC50 (GA6208) [µM] | IC50 (WT-BaF3 cells) [µM] | Day 35 tumor volume (mean ± SEM) [1] | Day 35 TGI (%) [1] [%] | IC50 (T47D cells) [µM]
Cc1nn(CCO)cc1Nc1ncc2cc(-c3cccnc3)cc(C(C)C)c2n1 [I-21] | 2.13 | ≤ 0.02 | 1.14 | 0.62 | > 2.5 | 782.88±71.02 | 44.59 | –
COc1c(P(C)(C)=O)ccc(Nc2ncc3cc(-c4nccnc4C)cc(C4CC4)c3n2)c1F [II-69] | 9.28 | ≤ 0.02 | 8.01 | 5.63 | > 2.5 | – | – | ≤ 0.5
Cc1nn(CCO)cc1Nc1ncc2cc(-c3nccnc3C)cc(C(F)(F)F)c2n1 [I-109] | 17 | ≤ 0.02 | – | 8.53 | > 2.5 | – | – | –
Cc1c[nH]c(=O)cc1-c1cc(C(C)C)c2nc(Nc3cn(C)nc3C)ncc2c1 [III-2] | – | ≤ 0.02 | – | – | > 2.5 | – | – | ≤ 0.5
Cc1nn(CCO)cc1Nc1ncc2cc(-c3cc(F)cnc3C)cc(C(C)C)c2n1 [I-41] | – | ≤ 0.02 | – | – | > 2.5 | – | – | 0.5 to 1
Cc1nn(C)cc1Nc1ncc2cc(-c3cn(C)nc3C)cc(C(C)C)c2n1 [III-87] | – | ≤ 0.02 | – | – | 0.1 to 0.5 | – | – | ≤ 0.5
COc1cc(Nc2ncc3cc(-c4nccnc4C)cc(C4CC4)c3n2)ccc1P(C)(C)=O [II-33] | – | ≤ 0.02 | – | – | 0.1 to 0.5 | – | – | ≤ 0.5
Cc1nn(C)cc1Nc1ncc2cc(-c3cncnc3C)cc(C(C)C)c2n1 [III-92] | – | ≤ 0.02 | – | – | 0.1 to 0.5 | – | – | ≤ 0.5
Cc1nn(CCO)cc1Nc1ncc2cc(-c3cncc(F)c3C)cc(C(C)C)c2n1 [I-36] | – | ≤ 0.02 | – | – | 0.5 to 2.5 | – | – | ≤ 0.5
Cc1nn(CCO)cc1Nc1ncc2cc(-c3ccnc(N)c3)cc(C(C)C)c2n1 [I-14] | – | ≤ 0.02 | – | – | 0.5 to 2.5 | – | – | 0.5 to 1
Cc1nn(CCO)cc1Nc1ncc2cc(-c3cc(O)ccc3F)cc(C(C)C)c2n1 [I-160] | – | ≤ 0.02 | – | – | 0.1 to 0.5 | – | – | ≤ 0.5
Cc1nn(CCO)cc1Nc1ncc2cc(-c3cncnc3C)cc(C3CC3)c2n1 [I-146] | – | ≤ 0.02 | – | – | 0.5 to 2.5 | – | – | 0.5 to 1
COc1cc(Nc2ncc3cc(-c4nccnc4C)cc(C4CC4)c3n2)c(F)cc1P(C)(C)=O [II-70] | – | 0.02 to 0.1 | – | – | 0.5 to 2.5 | – | – | ≤ 0.5
Cc1nn(C)cc1Nc1ncc2cc(-c3nccnc3C)cc(C(C)C)c2n1 [III-99] | – | ≤ 0.02 | – | – | 0.5 to 2.5 | – | – | ≤ 0.5
COc1cc(Nc2ncc3cc(-c4cccnc4C)cc(C4CC4)c3n2)ccc1P(C)(C)=O [II-64] | – | ≤ 0.02 | – | – | 0.5 to 2.5 | – | – | ≤ 0.5
N.N.[Cl][Pt][Cl] [cisplatin, reference compound] | 4.28 | – | 1.38 | 0.298 | – | 1250.42±137.64 | 11.50 | –
CNc1cc(Nc2ncc3cc(-c4nccnc4C)cc(C4CC4)c3n2)ccc1P(C)(C)=O [II-77] | – | ≤ 0.02 | – | – | 0.1 to 0.5 | – | – | ≤ 0.5
COc1cc(Nc2ncc3cc(-c4nnccc4C)cc(C4CC4)c3n2)ccc1P(C)(C)=O [II-67] | – | ≤ 0.02 | – | – | 0.1 to 0.5 | – | – | ≤ 0.5
Cc1nccnc1-c1cc(C(C)C)c2nc(Nc3cn(CCO)nc3Cl)ncc2c1 [I-98] | – | ≤ 0.02 | – | – | 0.5 to 2.5 | – | – | 0.5 to 1
Cc1nccnc1-c1cc(C2CC2)c2nc(Nc3cnn(CC(=O)N(C)C)c3)ncc2c1 [III-132] | – | ≤ 0.02 | – | – | 0.5 to 2.5 | – | – | ≤ 0.5
Cc1nn(CCO)cc1Nc1ncc2cc(-c3cnoc3C)cc(C(C)C)c2n1 [I-193] | – | ≤ 0.02 | – | – | 0.1 to 0.5 | – | – | ≤ 0.5
Cc1nccnc1-c1cc(C(C)C)c2nc(Nc3ccc(P(C)(C)=O)cc3F)ncc2c1 [II-12] | – | 0.02 to 0.1 | – | – | > 2.5 | – | – | 0.5 to 1
COc1cc(Nc2ncc3cc(-c4nccnc4C)cc(C(C)C)c3n2)c(F)cc1P(C)(C)=O [II-22] | – | ≤ 0.02 | – | – | 0.5 to 2.5 | – | – | ≤ 0.5
Cc1ccncc1-c1cc(C(C)C)c2nc(Nc3cn(CCO)nc3C)ncc2c1 [I-32] | – | ≤ 0.02 | – | – | 0.5 to 2.5 | – | – | ≤ 0.5
COc1cc(Nc2ncc3cc(-c4nccnc4C)cc(C(C)C)c3n2)ccc1P(C)(C)=O [II-16] | – | ≤ 0.02 | – | – | 0.5 to 2.5 | – | – | ≤ 0.5
Cc1nn(CCO)cc1Nc1ncc2cc(-c3c(C)n[nH]c3C)cc(C(C)C)c2n1 [I-189] | – | ≤ 0.02 | – | – | 0.5 to 2.5 | – | – | 0.5 to 1
